Patent publication US20100305207A1, “GLYCOGEN PHOSPHORYLASE INHIBITOR COMPOUND AND PHARMACEUTICAL COMPOSITION THEREOF” (priority 2007, published 2010)

Tests used:
[1] = target: T1, human liver glycogen phosphorylase a (HLGPa) (Homo sapiens, UniProt P06737); assay: Human liver glycogen phosphorylase a enzymatic activity assay; type: biochemical; details: 15 nM HLGPa, coupled resorufin fluorescence readout, 15 min preincubation; assay run with and without 10 mM glucose, not stated which applies
T1 construct: creating a full-length cDNA fused at the 5′ end to codons for methionine-glycine-alanine-histidine; 6x histidine tag (leader Met-Gly-Ala-His6-Gly-Gly) (N); Tev protease cleavage site (Glu-Asn-Leu-Tyr-Phe-Gln-Gly-Gly) (N); made in house; host or cells: E. coli (bacterial expression plasmid pTXK1007LTev)
T1 sequence (P06737 2-847): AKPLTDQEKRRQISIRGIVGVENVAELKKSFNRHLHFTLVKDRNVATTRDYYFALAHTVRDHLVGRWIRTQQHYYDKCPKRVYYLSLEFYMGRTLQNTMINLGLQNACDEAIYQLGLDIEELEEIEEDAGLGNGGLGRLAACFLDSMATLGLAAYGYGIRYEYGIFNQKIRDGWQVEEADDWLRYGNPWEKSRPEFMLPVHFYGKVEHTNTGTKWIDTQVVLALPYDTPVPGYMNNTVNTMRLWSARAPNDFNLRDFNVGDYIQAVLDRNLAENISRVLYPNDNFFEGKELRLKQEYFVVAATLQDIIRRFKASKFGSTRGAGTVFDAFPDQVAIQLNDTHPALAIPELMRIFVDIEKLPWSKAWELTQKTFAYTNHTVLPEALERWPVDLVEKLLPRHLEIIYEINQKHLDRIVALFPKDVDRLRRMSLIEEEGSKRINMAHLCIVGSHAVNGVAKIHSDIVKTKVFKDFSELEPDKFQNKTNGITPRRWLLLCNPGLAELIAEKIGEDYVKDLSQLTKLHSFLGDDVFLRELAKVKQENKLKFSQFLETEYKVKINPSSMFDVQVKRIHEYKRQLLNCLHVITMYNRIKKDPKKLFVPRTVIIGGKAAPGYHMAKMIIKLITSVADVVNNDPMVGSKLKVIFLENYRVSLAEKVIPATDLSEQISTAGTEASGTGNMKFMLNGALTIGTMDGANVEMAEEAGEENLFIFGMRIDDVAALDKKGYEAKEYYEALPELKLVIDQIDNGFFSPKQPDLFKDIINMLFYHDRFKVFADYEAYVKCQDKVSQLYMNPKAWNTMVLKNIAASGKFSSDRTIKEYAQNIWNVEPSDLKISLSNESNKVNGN
Text: The purified glycogen phosphorylase (GP) enzyme, wherein glycogen phosphorylase is in the activated “a” state, referred to as human liver glycogen phosphorylase a (HLGPa), can be obtained according to the following procedures.
Human liver glycogen phosphorylase cDNA was amplified by polymerase chain reaction (PCR) from a commercially available human liver cDNA library (BD Biosciences). The cDNA was amplified as 2 overlapping fragments using the primers 5′[…]3′ with 5′[…]3′ and 5′[…]3′ with 5′[…]3′. PCR conditions were 94° C. 1 min., 55° C. 1 min., 72° C. 2 min. for 40 cycles using the enzyme Pfu Turbo (Stratagene), 0.5% DMSO, 250 uM each nucleotide triphosphate, and 0.4 uM each primer plus the buffer recommended by the polymerase manufacturer. Each PCR fragment was molecularly cloned and the DNA sequence of each insert was determined. […] The DNA sequence of both strands of the cDNA in pTXK1007LTev was determined. […]
Frozen purified glycogen phosphorylase (HLGPb) was thawed in at 4° C. then dialyzed overnight into 50 mM HEPES, 100 mM NaCl, pH 7.4. […] The degree of phosphorylation was monitored by following the increase in activity at 10 minute intervals using the assay system outlined below. […]

male CD rats = assay: In vivo glucagon challenge model; design: species or system rat; details: glucagon 10 ug/kg + Sandostatin 0.5 mg/kg i.v. 2 hr after dosing, serum glucose 0-20 min
Procedure: Jugular vein cannulated male CD rats (220-260 g) (Charles Rivers, Raleigh, N.C.) were received 1-2 days after cannulation, housed individually on Alpha-dri™ bedding (Shepherd Specialty Papers, Inc., Kalamazoo, Mich.) with free access to food (Lab Diet 5001, PMI Nutrition International, Brentwood, Mo.) and water and maintained on a 12 h light/dark cycle at 21° C. and 50% relative humidity for 3-4 days prior to the glucagon challenge studies. On the day of the study, the rats were sorted by body weight into treatment groups (N=4-5) and housed individually in shoe box cages with clean Alpha-dri bedding. The cannula lines were opened by removal of 0.2 ml blood and flushed with 0.2 ml sterile saline. After a one hour acclimation, blood samples were collected to determine basal glucose and the rats were orally dosed with vehicle (5% DMSO: 30% Solutol HS15: 20% PEG400: 45% 25 mM N-methylglucamine) or drug (5 ml/kg). Two hr after drug dosing, a time zero blood sample (0.4 ml) was collected for determination of glucose and the rats were dosed through the jugular vein with Sandostatin, 0.5 mg/kg, (Novartis Pharmaceuticals Corp., East Hanover, N.J.) and glucagon, 10 ug/kg (Bedford Laboratories, Bedford, Ohio). Blood samples were collected after 10 and 20 min for glucose determination. Whole blood was placed in a Terumo Capiject blood collection tube (Terumo Medical Corp., Elkton, Md.), allowed to sit at room temperature for 20-30 minutes and then centrifuged (3,000×G) to obtain serum. Serum levels of glucose were determined using an Olympus AU640™ clinical chemistry immuno-analyzer (Olympus America Inc., Melville, N.Y.). The % reduction (% R) of the vehicle glucose AUC was calculated for each drug treatment using the formula % reduction=100*1−(AUC drug/AUC vehicle), where AUG was calculated from serum glucose values using the equation AUG=(T0+T10)/2*10+(T10+T20)/2*10−(T0*20).

IC50 [1]: 4 nM
Compound: COCCOc1ccc(C(=O)N[C@H](C(=O)O)[C@@H](C)OC(C)(C)C)c(NC(=O)Nc2c(C)cc(CC3CC3)cc2C)c1 [Example 1, N-[(2-[({[4-(Cyclopropylmethyl)-2,6-dimethylphenyl]amino}carbonyl)amino]-4-{[2-(methyloxy)ethyl]oxy}phenyl)carbonyl]-O-(1,1-dimethylethyl)-L-threonine]
% R (% reduction of the vehicle glucose AUC) (male CD rats; 0.1 mg/kg oral): 4%
% R (% reduction of the vehicle glucose AUC) (male CD rats; 0.5 mg/kg oral): 36%
% R (% reduction of the vehicle glucose AUC) (male CD rats; 2 mg/kg oral): 48%
% R (% reduction of the vehicle glucose AUC) (male CD rats; 5 mg/kg oral): 76%
